For 1 compound, IC50 results are on record in paper PMC8805037, “Ready access to 7,8-dihydroindolo[2,3-d][1]benzazepine-6(5H)-one scaffold and analogues via early-stage Fischer ring-closure reaction” (Beilstein Journal of Organic Chemistry, 2022).

In the test the target is proto-oncogene tyrosine-protein kinase Src (Homo sapiens, UniProt P12931). The experiment in a line: IC50 reported as preliminary result; assay not described in the text shown. Format: biochemical.
proto-oncogene tyrosine-protein kinase Src, sequence (P12931 2-536): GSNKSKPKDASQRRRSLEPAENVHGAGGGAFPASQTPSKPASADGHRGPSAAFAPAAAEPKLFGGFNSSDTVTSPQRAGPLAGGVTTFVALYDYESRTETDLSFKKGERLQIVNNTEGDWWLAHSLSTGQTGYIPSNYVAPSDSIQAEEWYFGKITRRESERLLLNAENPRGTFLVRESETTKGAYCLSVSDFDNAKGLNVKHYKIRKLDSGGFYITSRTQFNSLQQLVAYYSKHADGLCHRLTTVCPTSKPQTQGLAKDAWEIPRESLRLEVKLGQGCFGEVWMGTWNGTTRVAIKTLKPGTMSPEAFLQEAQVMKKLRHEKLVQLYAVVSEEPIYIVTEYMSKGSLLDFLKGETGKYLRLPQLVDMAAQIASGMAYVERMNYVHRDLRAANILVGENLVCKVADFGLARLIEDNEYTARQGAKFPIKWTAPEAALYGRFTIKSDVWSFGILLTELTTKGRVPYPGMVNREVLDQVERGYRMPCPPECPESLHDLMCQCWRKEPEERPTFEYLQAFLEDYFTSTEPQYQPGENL

In the case of `O=C1Cc2[nH]c3ccccc3c2-c2ccccc2N1` [C, 7,8-dihydroindolo[2,3-d][1]benzazepin-6(5H)-one], half-maximal inhibition (IC50) required 260 nM.
